Data published in ChEMBL document CHEMBL3044988, “QSAR analysis of B-ring-modified diaryl ether derivatives as a InhA inhibitors” (Med Chem Res, 2012).
pIC50: −log10 of the molar value.

Experiments:
[1] = Partition coefficient, log P of the compound; type: physicochemical; settings: octanol/water
[2] = target: T1, Enoyl-[acyl-carrier-protein] reductase [NADH] (Mycobacterium tuberculosis, UniProt P9WGR1)
T1 sequence (P9WGR1 whole entry): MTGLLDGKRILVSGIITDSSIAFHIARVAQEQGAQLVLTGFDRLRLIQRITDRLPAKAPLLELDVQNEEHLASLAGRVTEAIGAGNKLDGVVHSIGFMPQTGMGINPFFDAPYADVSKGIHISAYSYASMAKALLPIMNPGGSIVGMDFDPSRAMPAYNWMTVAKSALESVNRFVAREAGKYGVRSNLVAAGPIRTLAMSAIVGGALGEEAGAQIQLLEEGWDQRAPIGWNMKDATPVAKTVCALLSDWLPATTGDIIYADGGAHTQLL
Description: Inhibition of Mycobacterium tuberculosis InhA

`CCCCCCc1ccc(Oc2ncccn2)c(O)c1` gave a logP ([1]; read-out: logP) of 4.13.

Compound `CCCCCCc1ccc(Oc2cnccn2)c(O)c1` has a logP ([1]; read-out: logP) of 4.12.

With `CCCCCCc1ccc(Oc2ccncc2)c(O)c1` the logP ([1]; read-out: logP) was 4.33.

In the case of `CCCCCCc1ccc(Oc2ccc(NC(=O)c3ccno3)cc2)c(O)c1`, the logP ([1]; read-out: logP) was 4.86.

`CCCCCCc1ccc(Oc2ccc(CN3CCN(C)CC3)cc2)c(O)c1` gave a logP ([1]; read-out: logP) of 5.33.

Compound `CCCCCCc1ccc(Oc2ccc(NC(=O)C(=O)O)cc2)c(O)c1` has a logP ([1]; read-out: logP) of 5.59.

For `CCCCCCc1ccc(Oc2ccc(NC(C)=O)cc2)c(O)c1`, the logP ([1]; read-out: logP) was 5.

With `CCCCCCc1ccc(Oc2ccc(N)cc2)c(O)c1` the logP ([1]; read-out: logP) was 4.42.

With `CCCCCCc1ccc(Oc2ccccc2NC(C)=O)c(O)c1` the logP ([1]; read-out: logP) was 5.

For `CCCCCCc1ccc(Oc2ccccc2[N+](=O)[O-])c(O)c1`, the logP [1] was 4.489.

Compound `CCCCCCc1ccc(Oc2cccc([N+](=O)[O-])c2)c(O)c1` has a logP ([1]; read-out: logP) of 4.49.

For `CCCCCCc1ccc(Oc2ccc([N+](=O)[O-])cc2)c(O)c1`, the logP [1] was 4.489.

Work on `CCCCCCc1ccc(Oc2ccccc2N)c(O)c1` yielded a logP ([1]; read-out: logP) of 4.42.

In the case of `CCCCCCc1ccc(Oc2ccccn2)c(O)c1`, the logP ([1]; read-out: logP) was 5.03.

In the case of `CCCCCCc1ccc(Oc2ccccc2)c(O)c1`, the logP ([1]; read-out: logP) was 5.64.

Compound `CCCCCCc1ccc(Oc2cccc(NC(C)=O)c2)c(O)c1` has a logP ([1]; read-out: logP) of 5 and a pIC50 [2] of 6.24.

Compound `CCCCCCc1ccc(Oc2cccc(N)c2)c(O)c1` has a logP ([1]; read-out: logP) of 4.42.

In the case of `CCCCCCc1ccc(Oc2cccc(NC(=O)c3ccno3)c2)c(O)c1`, the logP ([1]; read-out: logP) was 4.86.

Compound `CCCCCCc1ccc(Oc2cccnc2)c(O)c1` has a logP ([1]; read-out: logP) of 4.33.

Compound `CCCCCCc1ccc(Oc2ccccc2CN2CCN(C)CC2)c(O)c1` has a logP ([1]; read-out: logP) of 5.33.

`CCCCCCc1ccc(Oc2ccccc2NC(=O)c2ccno2)c(O)c1` gave a logP ([1]; read-out: logP) of 4.86.
